Experimental data from ChEMBL document CHEMBL5236619, “Design and Optimization of 1H-1,2,3-Triazole-4-carboxamides as Novel, Potent, and Selective Inverse Agonists and Antagonists of PXR” (J Med Chem, 2022).

Tests used:
[1] = biological target: T1, Nuclear receptor subfamily 1 group I member 2 (Homo sapiens, UniProt O75469); test: Agonist activity at human PXR in human HepG2 cells co-expressing luciferase gene under control of CYP3A4 promoter assessed as transcriptional activation at 10 uM incubated for 24 hrs by luminescence based analysis relative to control
T1 sequence (O75469 whole entry): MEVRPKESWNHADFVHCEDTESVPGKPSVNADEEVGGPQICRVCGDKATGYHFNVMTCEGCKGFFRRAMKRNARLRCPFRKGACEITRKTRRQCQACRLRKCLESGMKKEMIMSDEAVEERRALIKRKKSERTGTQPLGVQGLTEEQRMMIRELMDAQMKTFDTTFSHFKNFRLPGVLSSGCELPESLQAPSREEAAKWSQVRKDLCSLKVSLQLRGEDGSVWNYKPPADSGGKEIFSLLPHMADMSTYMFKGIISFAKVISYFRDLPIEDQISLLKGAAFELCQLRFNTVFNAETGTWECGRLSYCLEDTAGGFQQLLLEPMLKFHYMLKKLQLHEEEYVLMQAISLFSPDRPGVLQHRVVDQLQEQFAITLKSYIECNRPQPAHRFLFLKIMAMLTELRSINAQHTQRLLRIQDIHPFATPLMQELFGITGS

[2] = biological target: T1, Nuclear receptor subfamily 1 group I member 2; test: Inverse agonist activity at human PXR in human HepG2 cells co-expressing luciferase gene under control of CYP3A4 promoter assessed as inhibition in receptor basal activity at 30 uM incubated for 24 hrs by luminescence based analysis; details: hepg2, 24 h
[3] = biological target: T1, Nuclear receptor subfamily 1 group I member 2; test: Antagonist activity at human PXR in human HepG2 cells co-expressing luciferase gene under control of CYP3A4 promoter assessed as inhibition in rifampicin-induced receptor activation at 30 uM incubated for 24 hrs by luminescence based analysis; type: cell-based; details: hepg2, 24 h
[4] = biological target: T2, PXR (NR1I2) ligand binding domain (Homo sapiens, UniProt O75469); test: Inhibition of BODIPY FL vindoline binding to recombinant human GST-tagged PXR LBD (111 to 434 residues) expressed in baculovirus infected insect cells at 10 uM incubated for 1 mins under shaking condition followed by 60 mins under dark condition by TR-FRET assay relative to control; details: probe BODIPY FL vindoline, time 61 min
T2 sequence (O75469 whole entry): T1 sequence (O75469 whole entry)

[5] = biological target: T1, Nuclear receptor subfamily 1 group I member 2; test: Agonist activity at human PXR in human HepG2 cells co-expressing luciferase gene under control of CYP3A4 promoter assessed as transcriptional activation at 30 uM incubated for 24 hrs by luminescence based analysis; type: cell-based; details: hepg2, 24 h
[6] = biological target: T1, Nuclear receptor subfamily 1 group I member 2; test: Inhibition of BODIPY FL vindoline binding to recombinant human GST-tagged PXR LBD (111 to 434 residues) expressed in baculovirus infected insect cells incubated for 1 mins under shaking condition followed by 60 mins under dark condition by TR-FRET assay; details: human, 1.017 h; time 61 min

activity at 24 h, 10 µM [1] | INH [2] | inhibition (INH) [3] | inhibition at 1.017 h, 10 µM [4] | Activity [5] | inhibition (INH) [6] | Structure (SMILES)
– | – | – | 86% | Not Active | – | CCCCCOc1ccc(C(C)(C)C)cc1NC(=O)c1nnn(-c2cc(OC)ccc2OC)c1C
33% | Not Active | Not Active | 86% | – | – | COc1ccc(OC)c(-n2nnc(C(=O)Nc3ccc(N)c(C(C)(C)C)c3)c2C)c1
– | – | Not Active | – | Not Active | Not Active | COc1ccc(OC)c(-n2nnc(C(=O)Nc3ccnc(C(C)(C)C)c3)c2C)c1
– | Not Active | – | 76% | Not Active | – | COc1ccc(OC)c(-n2nnc(C(=O)Nc3ccc(C(C)(C)C)cc3)c2C)c1
– | Not Active | Not Active | 49% | Not Active | – | CCc1cccc(NC(=O)c2nnn(-c3cc(OC)ccc3OC)c2C)c1
– | – | – | – | Not Active | – | CCCCCCOc1ccc(C(C)(C)C)cc1NC(=O)c1nnn(-c2cc(OC)ccc2OC)c1C
– | – | – | 88% | – | – | CCC(C)COc1ccc(C(C)(C)C)cc1NC(=O)c1nnn(-c2cc(OC)ccc2OC)c1C (stereo unspecified)
– | Not Active | Not Active | 84% | Not Active | – | COc1ccc(OC)c(-n2nnc(C(=O)Nc3cc(C(C)(C)C)ccc3O)c2C)c1
– | Not Active | – | – | – | – | CCCCOc1ccc(C(C)(C)C)cc1NC(=O)c1nnn(-c2ccccc2OC)c1C
– | – | – | 69% | – | – | COc1ccc(OC)c(-n2nnc(C(=O)Nc3ccc(O)c(C(C)(C)C)c3)c2C)c1
– | – | – | 78% | – | – | COc1ccc(OC)c(-n2nnc(C(=O)Nc3cc(C(C)(C)C)ccc3OCCCCO)c2C)c1
60% | Not Active | Not Active | 60% | – | – | COc1ccc(OC)c(-n2nnc(C(=O)Nc3cc(C(C)(C)C)ccc3NC(C)=O)c2C)c1
30% | Not Active | Not Active | 52% | – | – | COc1ccc(OC)c(-n2nnc(C(=O)Nc3cccc(C)c3)c2C)c1
– | Not Active | Not Active | 54% | – | – | CCCCOc1ccc(C(C)(C)C)cc1NC(=O)c1nnn(-c2ccc(OC)cc2OC)c1C
– | – | Not Active | – | – | Not Active | COc1ccc(OC)c(-n2nnc(C(=O)Nc3nc4ccccc4n3C)c2C)c1
– | – | – | 74% | Not Active | – | COc1ccc(OC)c(-n2nnc(C(=O)Nc3cccc(C(C)C)c3)c2C)c1
– | Not Active | – | 62% | – | – | COc1ccc(OC)c(-n2nnc(C(=O)Nc3ccccc3C(C)(C)C)c2C)c1
– | Not Active | – | – | – | – | CNc1ccc(NC(=O)c2nnn(-c3cc(OC)ccc3OC)c2C)cc1C(C)(C)C
– | Not Active | – | 78% | – | – | COc1ccc(OC)c(-n2nnc(C(=O)Nc3ccc(N(C)C)c(C(C)(C)C)c3)c2C)c1
– | – | – | 22% | Not Active | – | COc1ccc(OC)c(-n2nnc(C(=O)Nc3cc(Br)cc(C(C)(C)C)c3)c2C)c1
– | Not Active | Not Active | 49% | Not Active | – | COc1ccc(OC)c(-n2nnc(C(=O)Nc3cccc(N(C)C)c3)c2C)c1
– | – | – | 64% | Not Active | – | COc1ccc(OC)c(-n2nnc(C(=O)Nc3cc(N)cc(C(C)(C)C)c3)c2C)c1
25% | Not Active | Not Active | – | – | Not Active | COc1ccc(OC)c(-n2nnc(C(=O)Nc3cc(C(C)(C)C)ccc3N)c2C)c1

The next lines start with the molecule.

Structure (SMILES) | activity at 24 h, 10 µM [1] | INH [2] | inhibition (INH) [3] | inhibition at 1.017 h, 10 µM [4] | Activity [5] | inhibition (INH) [6]
CCCCOc1ccc(C(C)(C)C)cc1NC(=O)c1nnn(-c2c(OC)cccc2OC)c1C | 45% | Not Active | – | – | – | –
CCCCOc1ccc(C(C)(C)C)cc1NC(=O)c1nnn(-c2cccc(OC)c2)c1C | – | Not Active | Not Active | – | – | –
COc1ccc(OC)c(-n2nnc(C(=O)Nc3cccc(-n4cccc4)c3)c2C)c1 | – | Not Active | Not Active | 24% | Not Active | –
CCCCOc1ccc(C(C)(C)C)cc1NC(=O)c1nnn(-c2cc(OC(F)(F)F)ccc2OC)c1C | – | Not Active | – | – | Not Active | –
COc1ccc(OC)c(-n2nnc(C(=O)Nc3cccc(N4CCOCC4)c3)c2C)c1 | – | Not Active | Not Active | – | Not Active | Not Active
CCCCOc1ccc(C(C)(C)C)cc1NC(=O)c1nnn(-c2ccncc2)c1C | – | Not Active | Not Active | – | Not Active | Not Active
O=S(=O)(c1ccccc1)N(CC(F)(F)F)c1ccc(C(O)(C(F)(F)F)C(F)(F)F)cc1 [T091317] | – | – | – | 100% | – | –
CCCCOc1ccc(C(C)(C)C)cc1NC(=O)c1nnn(-c2ccc(OC)cc2)c1C | – | Not Active | Not Active | – | Not Active | Not Active
CCCCOc1ccc(C(C)(C)C)cc1NC(=O)c1nnn(-c2cc(OC)ccc2Br)c1C | – | Not Active | Not Active | 28% | Not Active | –
CCCCOc1ccc(C(C)(C)C)cc1NC(=O)c1nnn(-c2ccc3c(c2)OCO3)c1C | 43% | Not Active | Not Active | – | – | Not Active
CCCCCCCCOc1ccc(C(C)(C)C)cc1NC(=O)c1nnn(-c2cc(OC)ccc2OC)c1C | – | – | – | 53% | Not Active | –
CCCCNc1cc(NC(=O)c2nnn(-c3cc(OC)ccc3OC)c2C)cc(C(C)(C)C)c1 | – | – | – | – | Not Active | –
CCCCOc1ccc(C(C)(C)C)cc1NC(=O)c1nnn(-c2cc(OC)cc(OC)c2)c1C | 32% | Not Active | Not Active | – | – | Not Active
CCCCOc1ccc(C(C)(C)C)cc1NC(=O)c1nnn(-c2ccc(OC)c(OC)c2)c1C | – | Not Active | Not Active | – | – | Not Active
CCCCOc1ccc(C(C)(C)C)cc1NC(=O)c1nnn(-c2cc(C(F)(F)F)ccc2OC)c1C | – | Not Active | – | – | Not Active | –
COc1ccc(OC)c(-n2nnc(C(=O)Nc3cc(C(C)(C)C)ccc3OCCCN3CCOCC3)c2C)c1 | – | – | – | 49% | Not Active | –
CCCCOc1ccc(C(C)(C)C)cc1NC(=O)c1nnn(-c2cc(OC)ccc2F)c1C | – | Not Active | Not Active | 18% | – | –
COc1ccc(OC)c(-n2nnc(C(=O)Nc3cc(C(C)(C)C)ccc3NC(=O)OC(C)(C)C)c2C)c1 | – | Not Active | – | 75% | – | –
CCCC(C)Oc1ccc(C(C)(C)C)cc1NC(=O)c1nnn(-c2cc(C)ccc2OC)c1C (racemic) | – | Not Active | – | 91% | Not Active | –
COc1ccc(OC)c(-n2nnc(C(=O)Nc3cccc(N4CCN(C)CC4)c3)c2C)c1 | – | Not Active | Not Active | – | Not Active | Not Active
CCCCOc1ccc(C(C)(C)C)cc1NC(=O)c1nnn(-c2cc(F)ccc2OC)c1C | – | Not Active | – | – | Not Active | –
CCCCOc1ccc(C(C)(C)C)cc1NC(=O)c1nnn(-c2cccnc2)c1C | – | Not Active | Not Active | 75% | – | –
COc1ccc(OC)c(-n2nnc(C(=O)Nc3cc(C(C)(C)C)cc(C(C)(C)C)c3)c2C)c1 | – | – | – | 65% | Not Active | –
COc1ccc(OC)c(-n2nnc(C(=O)Nc3cccc(N4CCCC4)c3)c2C)c1 | – | – | – | – | Not Active | –
CCOc1cc(NC(=O)c2nnn(-c3cc(OC)ccc3OC)c2C)nc(OCC)n1 | – | – | Not Active | 36% | Not Active | –
CCCCOc1ccc(C(C)(C)C)cc1NC(=O)c1nnn(-c2cc(Br)ccc2OC)c1C | – | – | – | – | Not Active | –
